Data as given in US5807868A, “Isoquinoline derivatives as therapeutic agents” (Knoll Aktiengesellschaft, priority 1993, dated 1998).
Structures can show the parent of a compound that is named as a salt.

How the values were obtained:
[1] = biological target: D2 dopamine receptors (Rattus norvegicus, UniProt P61169); assay: Inhibition of tritiated (S)-sulpiride binding to D2 dopamine receptors, rat striatal samples; design: species or system rat (male Charles River CD rats); conditions: rat striatum, pH 7.7, 4° C., 40 minutes
Sequence of D2 dopamine receptors (P61169 whole entry): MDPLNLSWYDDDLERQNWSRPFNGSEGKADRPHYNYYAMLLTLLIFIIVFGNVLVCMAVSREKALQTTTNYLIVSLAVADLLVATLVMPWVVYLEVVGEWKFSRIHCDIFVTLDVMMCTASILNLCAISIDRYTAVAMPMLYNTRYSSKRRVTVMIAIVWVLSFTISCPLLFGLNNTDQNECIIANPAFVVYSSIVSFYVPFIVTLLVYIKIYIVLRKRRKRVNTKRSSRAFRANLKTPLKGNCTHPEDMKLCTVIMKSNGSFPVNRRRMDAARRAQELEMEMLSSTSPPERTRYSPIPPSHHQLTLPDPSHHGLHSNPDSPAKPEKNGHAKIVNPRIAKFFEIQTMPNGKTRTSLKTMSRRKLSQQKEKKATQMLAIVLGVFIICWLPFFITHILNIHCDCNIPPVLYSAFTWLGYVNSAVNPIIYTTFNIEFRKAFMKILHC
Method: (§1) Striatal samples from the brains of male Charles River CD rats weighing between 140-250 g were homogenised in ice-cold 50 mM Tris-HCl buffer (pH 7.4 when measured at 25° C. for D1 binding assays and pH 7.7 when measured at 25° C. for D2 binding assays) and centrifuged for 10 minutes (at 21,000 g when used for D1 binding assay and 40,000 g when used for D2 binding assays). The pellet was resuspended in the same buffer, again centrifuged and the final pellet stored at -80° C. Before each test the pellet was resuspended in 50 mM Tris-HCl buffer containing 120 mM NaCl, 5 mM KCl, 2 mM CaCl2 and 1 mM MgCl2 at pH 7.4 for the D1 binding assays and at pH 7.7 with the addition of 6 mM ascorbic acid for the D2 binding assays. Aliquots of this suspension were then added to tubes containing the ligand and either the compound under test or buffer. For the D1 binding assays the ligand was tritiated SCH 23390 and the mixture was incubated at 37° C. for 30 minutes before the incubation was terminated by rapid filtration. For the D2 binding assays the ligand was tritiated (S)-sulpiride and the mixture was incubated at 4° C. for 40 minutes before the incubation was terminated by rapid filtration. Non-specific binding was determined experimentally by the addition of saturating concentrations of chloropromazine or spiroperidol for D1 and D2 receptors respectively.
(§2) The filters were washed with ice-cold Tris-HCl buffer and dried. The filters were punched out into vials containing scintillation fluid and were left for about 20 hours before being counted by scintillation spectrophotometry. Competition binding curves were produced over a range of concentrations of the compound under test and the inhibition coefficient Ki was derived from the data by use of the non-linear curve fitting computer programe EBDA (Biosoft).

[2] = biological target: D1 dopamine receptors (Rattus norvegicus, UniProt P18901); assay: Inhibition of tritiated SCH 23390 binding to D1 dopamine receptors, rat striatal samples; design: species or system rat (male Charles River CD rats); conditions: for Ki: rat striatum, tritiated SCH 23390, pH 7.4, 37° C., 30 minutes; for Ki for D2 / Ki for D1: ratio between the D2 and D1 Ki values, to two significant figures
Sequence of D1 dopamine receptors (P18901 whole entry): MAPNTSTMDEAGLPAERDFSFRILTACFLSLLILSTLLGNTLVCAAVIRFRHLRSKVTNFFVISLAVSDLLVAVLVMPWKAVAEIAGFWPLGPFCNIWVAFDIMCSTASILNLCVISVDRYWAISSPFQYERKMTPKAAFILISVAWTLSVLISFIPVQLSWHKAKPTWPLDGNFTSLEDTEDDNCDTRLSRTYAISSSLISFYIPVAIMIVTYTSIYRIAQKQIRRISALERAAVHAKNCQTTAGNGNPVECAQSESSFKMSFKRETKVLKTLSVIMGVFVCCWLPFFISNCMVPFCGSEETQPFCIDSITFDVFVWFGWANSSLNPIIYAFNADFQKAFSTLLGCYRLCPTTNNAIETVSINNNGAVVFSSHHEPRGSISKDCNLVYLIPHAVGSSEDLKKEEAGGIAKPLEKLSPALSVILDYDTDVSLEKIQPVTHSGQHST
Method: as §1, §2

Compound	Ki [1] [nM]	Ki [2] [nM]	Ki for D2 / Ki for D1 [2]
Cc1cc2c(cc1O)C(C1(c3ccsc3)CC1)N(C)CC2.O=C(O)C(=O)O (single isomer, unassigned; (-)) [Example 6, (-)-7-hydroxy-2,6-dimethyl-1-[1-(3-thienyl)cyclopropyl]-1,2,3,4-tetrahydroisoquinoline oxalate]	4900	2.1	2300
Cc1cc2c(cc1O)C(C1(c3ccsc3)CC1)N(C)CC2 (single isomer, unassigned; (-)) [Example 7, (-)-7-hydroxy-2,6-dimethyl-1-[1-(3-thienyl)cyclopropyl]-1,2,3,4-tetrahydroisoquinoline hydrochloride 0.8 hydrate]	8500	4.2	2000
Cc1cc2c(cc1O)C(C1(C3C=CCCC3)CCC1)N(C)CC2.O=C(O)C(=O)O (stereo not drawn) [Example 3, 1-[1-(cyclohex-1-en-3-yl)cyclobutyl]-7-hydroxy-2,6-dimethyl-1,2,3,4-tetrahydroisoquinoline oxalate]	9500	77	120
Br.Cc1cc2c(cc1O)C(C1(c3ccsc3)CC1)N(C)CC2 (racemic) [Example 8, (±)-7-hydroxy-2,6-dimethyl-1-[1-(3-thienyl)cyclopropyl]-1,2,3,4-tetrahydroisoquinoline hydrobromide]	1300	5.9	220
CN1CCc2ccc(O)cc2C1C1(c2ccccn2)CCC1.O=C(O)C(=O)O (stereo not drawn) [Example 10, 7-hydroxy-2-methyl-1-[1-(2-pyridyl)cyclobutyl]-1,2,3,4-tetrahydroisoquinoline oxalate]	7000	160	44

Results, then the compound that gave them:

Ki [1] [nM]	Ki [2] [nM]	Ki for D2 / Ki for D1 [2]	Compound
25000	370	68	Br.CC(C)CC1(C2c3cc(O)ccc3CCN2C)CCC1 (stereo not drawn) [Example 1, 7-hydroxy-2-methyl-1-[1-(2-methylpropyl)cyclobutyl]-1,2,3,4-tetrahydroisoquinoline hydrobromide]
8900	40	220	Cc1cc2c(cc1O)C(C1(c3ccco3)CC1)N(C)CC2.O=C(O)/C=C\C(=O)O (stereo not drawn) [Example 9, 1-[1-(2-furyl)cyclopropyl]-7-hydroxy-2,6-dimethyl-1,2,3,4-tetrahydroisoquinoline maleate]
2300	7.9	290	Cc1cc2c(cc1O)C(C1(CC3CCCC3)CC1)N(C)CC2 (stereo not drawn) [Example 2, 1-[1-(cyclopentylmethyl)cyclopropyl]-7-hydroxy-2,6-dimethyl-1,2,3,4-tetrahydroisoquinoline]
3000	32	94	Br.Cc1cc2c(cc1O)C(C1(c3cccs3)CC1)N(C)CC2 (stereo not drawn) [Example 5, 7-hydroxy-2,6-dimethyl-1-[1-(2-thienyl)cyclopropyl]-1,2,3,4-tetrahydroisoquinoline hydrobromide]
1100	140	79	Cc1cc2c(cc1O)C(C1(c3ccccn3)CC1)N(C)CC2 (stereo not drawn) [Example 11, 7-hydroxy-2,6-dimethyl-1-[1-(2-pyridyl)cyclopropyl]-1,2,3,4-tetrahydroisoquinoline]
190	6.7	28	Cc1cc2c(cc1O)C(C1(C3CCCc4ccccc43)CC1)N(C)CC2 (stereo not drawn) [Example 4, 7-hydroxy-2,6-dimethyl-1-[1-(1,2,3,4-tetrahydronaphth-1-yl)cyclopropyl]-1,2,3,4-tetrahydroisoquinoline 1.05 hydrochloride 0.7 hydrate]
